Laboratory results published in PMC6321055, “Synthesis of Novel ent-Kaurane-Type Diterpenoid Derivatives Effective for Highly Aggressive Tumor Cells” (Molecules, 2018).

Tests used:
[1] = in vitro; conditions: rat
Experimental: (§1) Cells were purchased from the Wuxi Innovatbio Medicine Technology Co. LTD (Wuxi, China) and were maintained at 37 °C under the atmosphere of 5% CO2. The cells of human non-small lung cancer (H292) and colon cancer cell line (SNU-1040) cells were cultured in RPMI-medium and others (rat myoblasts and HepG2) were cultured in dulbecco′s modified eagle medium (DMEM). 10% fetal bovine serum (Tianhang Biotechnology Co., Ltd., Zhejiang, China) and 1% antibiotics (100 U/mL penicillin and 100 mg/mL streptomycin) was supplemented. Cells are inoculated in 96-well plate and cultured for 24 h. After attached to the culture bottle wall cells were divided cells into three groups, (1) control group; (2) positive control group; (3) experiment group. […] After 24 h, 10% MTT was added and cells were culture for 3.5 h. Then the culture medium was discard and 150 µL DMSO was added. Eventually, after incubation for 10 min by shaking in the dark at room temperature, the absorbance was detected at 490 nm using a microplate reader, and the difference was analyzed by prism 7 software.

[2] = system: HepG2; assay: MTT cytotoxicity assay, HepG2; conditions: for IC50: Homo sapiens, HepG2, 24 h, read-out: In vitro cytotoxic activity IC50, HepG2; for SI (selective index, IC50 of normal cells/IC50 of tumor cells): IC50 L6 / IC50 HepG2
Experimental: as §1

[3] = system: SNU-1040; assay: MTT cytotoxicity assay, SNU-1040; conditions: Homo sapiens, 24 h, read-out: In vitro cytotoxic activity IC50, SNU-1040
Experimental: as §1

[4] = system: NSCLC-H292; assay: MTT cytotoxicity assay, NSCLC-H292; conditions: Homo sapiens, 24 h, read-out: In vitro cytotoxic activity IC50, NSCLC-H292
Experimental: as §1

[5] = MTT cytotoxicity assay, L6 normal cells; conditions: rat, L6 rat myotube cells (normal cells)
Experimental: as §1

melting point	IC50 at 24 h [1]	SMILES	IC50 [2]	IC50 [3]	IC50 [4]	SI (selective index, IC50 of normal cells/IC50 of tumor cells) [2]	IC50 at 24 h [5]
112 to 114.6 °C	> 10000 nM	C=C1C[C@]2(C(=O)OCC)C[C@H]1C(=O)C[C@@H]2C1CC(C)(C)C=CC1=O (some centres unmarked) [Compound 13]	> 10000 nM	1410 nM	4440 nM	–	–
103.2 to 105.8 °C	> 10000 nM	C=C1C[C@]2(C(=O)OCC)C[C@H]1C(=O)C[C@H]2C1CC(C)(C)C=CC1=O (some centres unmarked) [Compound 14]	> 10000 nM	1720 nM	2950 nM	–	–

Further lines, the molecule ahead of its results:

SMILES	melting point	IC50 at 24 h [1]	IC50 [2]	IC50 [3]	IC50 [4]	SI (selective index, IC50 of normal cells/IC50 of tumor cells) [2]	IC50 at 24 h [5]
C=C1C(O)[C@]2(C(=O)OCC)C[C@H]1C(=O)C[C@@H]2C1CC(C)(C)C=CC1=O (some centres unmarked) [Compound 15]	–	> 10000 nM	1810 nM	3130 nM	1990 nM	–	–
C=C1C(=O)[C@]2(C(=O)OCC)C[C@H]1C(=O)C[C@@H]2C1CC(C)(C)C=CC1=O (some centres unmarked) [Compound 16]	–	> 10000 nM	330 nM	2440 nM	1690 nM	161.06	–
C=C1C(O)[C@]2(C(=O)OCC)C[C@H]1C(=O)C[C@H]2C1CC(C)(C)C=CC1=O (some centres unmarked) [Compound 17]	–	> 10000 nM	1580 nM	2820 nM	990 nM	47.80	–
C=C1C(=O)[C@]2(C(=O)OCC)C[C@H]1C(=O)C[C@H]2C1CC(C)(C)C=CC1=O (some centres unmarked) [Compound 18]	–	> 10000 nM	560 nM	3010 nM	1350 nM	–	–
C=C1C(=O)[C@]23C[C@H]1CC[C@H]2[C@@]12CO[C@]3(O)[C@@H](O)[C@@H]1C(C)(C)C=CC2=O [Eriocalyxin B, reference compound]	–	–	2120 nM	1540 nM	7110 nM	–	> 10000 nM
